Measured values from US12527800B2, “Therapeutic agent for Parkinson's disease” (KYOWA KIRIN CO., LTD., priority 2019, dated 2026).

Tested on: patients of Parkinson's disease experiencing motor fluctuations
Test: Pooled analysis of phase 2b and phase 3 clinical studies of istradefylline combined with L-DOPA: change from baseline to week 12 and CGI-I at week 12
Assay type: in vivo, human
Conditions: for Mean daily OFF time, change from baseline to week 12: 12 weeks; for Mean daily OFF time, change from baseline to week 12 / Mean daily ON time with dyskinesia, change from baseline to week 12 / Mean daily ON time with non-troublesome dyskinesia, change from baseline to week 12 / Mean daily ON time with troublesome dyskinesia, change from baseline to week 12 / Mean daily ON time without dyskinesia, change from baseline to week 12 / Mean daily ON time without troublesome dyskinesia, change from baseline to week 12 / Mean daily percentage of OFF time, change from baseline to week 12 / Mean daily percentage of ON time with dyskinesia, change from baseline to week 12 / Mean daily percentage of ON time with non-troublesome dyskinesia, change from baseline to week 12 / Mean daily percentage of ON time with troublesome dyskinesia, change from baseline to week 12 / Mean daily percentage of ON time without dyskinesia, change from baseline to week 12 / Mean daily percentage of ON time without troublesome dyskinesia, change from baseline to week 12 / Total UPDRS Parts I-III at ON state, change from baseline to week 12 / UPDRS Part I score, change from baseline to week 12 / UPDRS Part II score OFF state, change from baseline to week 12 / UPDRS Part II score ON state, change from baseline to week 12 / UPDRS Part III score at ON state, change from baseline to week 12 / UPDRS Part IV score, change from baseline to week 12: mean ± SD; for CGI-I Minimally improved, % of patients / CGI-I Minimally improved, number of patients / CGI-I Minimally worse, % of patients / CGI-I Minimally worse, number of patients / CGI-I Much improved, % of patients / CGI-I Much improved, number of patients / CGI-I Much worse, % of patients / CGI-I Much worse, number of patients / CGI-I No change, % of patients / CGI-I No change, number of patients / CGI-I Very much improved, % of patients / CGI-I Very much improved, number of patients / CGI-I Very much worse, % of patients / CGI-I Very much worse, number of patients: week 12
Protocol: A pooled analysis was performed for two clinical studies of istradefylline combined with L-DOPA previously conducted in Japan. Both studies were performed according to the principles of the Declaration of Helsinki and were identically designed for 12-week, multicenter, randomized, double-blind, placebo-controlled, and parallel-group studies approved by the relevant institutional review boards of each center [(i) Mizuno Y, Kondo T. Adenosine A2A receptor antagonist istradefylline reduces daily OFF time in Parkinson's disease. Mov Disord 2013; 28: 1138-41, and (ii) Mizuno Y, Hasegawa K, Kondo T, et al. Clinical efficacy of istradefylline (KW-6002) in Parkinson's disease: a randomized, controlled study. Mov Disord 2010; 25(10): 1437-43)]. Both studies were registered in ClinicalTrials.gov (NCT00455507 [phase 2b] and NCT00955526 [phase 3]). Both studies enrolled patients of Parkinson's disease who were experiencing motor fluctuations.
Key inclusion criteria included age 20 years, stages 2-4 (OFF state) based on the Modified Hoehn and Yahr (mH&Y) scale, stable treatment regimen of antiparkinsonian drugs, and motor fluctuations with an OFF time of 2 hours or longer per day. Key exclusion criteria included history of surgical operation for Parkinson's disease, cognitive impairment, and pregnancy. The study protocols were approved by the institutional review boards at all participating study sites, and written informed consent was obtained from all patients prior to participation.
In both studies, eligible subjects were randomized to one of three groups: 12-week istradefylline 20 mg/day group, 12-week istradefylline 40 mg/day group, and 12-week placebo group. The subjects attended site visits at weeks 2, 4, 8, and 12 after randomization, and submitted patient diaries covering the 7-day period prior to each visit. The full analysis set included subjects who received at least one dose of study drug and completed at least one set of patient diaries.
The primary outcomes were changes in OFF time (hours/day) from baseline to 12 weeks obtained from the patient diaries, which were compared between the placebo group and the istradefylline group. Other outcomes included changes (%) in daily OFF time, changes in ON time without troublesome dyskinesia (“Good” ON time) (Hauser RA, Deckers F, Lehert P. Parkinson's disease home diary: further validation and implications for clinical trials. Mov Disord 2004; 19(12): 1409-13), (which was the summation of ON time without dyskinesia and ON time with non-troublesome dyskinesia), UPDRS parts I-IV score, and changes in Clinical Global Impressions-Improvement (CGI-I) score from baseline to 12 weeks. The varying from baseline values, and the treatment effect were determined as a difference in mean change between the placebo group and the istradefylline group during the follow up period.
Baseline data were summarized for all and respective treatment groups (placebo and istradefylline: 20 mg or 40 mg). Continuous variables were expressed as mean and standard deviation (SD), whereas categorical variables were expressed as proportions. The following statistical analyses were performed for patients without any missing data (listwise deletion or complete case analysis).

[1] = 20 mg/day, listed as Istradefylline
[2] = 40 mg/day, listed as Istradefylline

SMILES: CCn1c(=O)c2c(nc(/C=C/c3ccc(OC)c(OC)c3)n2C)n(CC)c1=O [istradefylline]
- Mean daily OFF time, change from baseline to week 12 (20 mg/day, N = 235): significant reductions
- Mean daily OFF time, change from baseline to week 12 (20 mg/day, N = 235, listed as Istradefylline): -1.23 ± 1.97 h
- Mean daily ON time with dyskinesia, change from baseline to week 12 (20 mg/day): 0.19 ± 1.53 h
- Mean daily ON time with non-troublesome dyskinesia, change from baseline to week 12 (20 mg/day): significantly increased
- Mean daily ON time with troublesome dyskinesia, change from baseline to week 12 (20 mg/day): 0.03 ± 1.33 h
- Mean daily ON time without dyskinesia, change from baseline to week 12 (20 mg/day): significantly increased
- Mean daily ON time without troublesome dyskinesia, change from baseline to week 12 (20 mg/day): significantly increased
- Mean daily percentage of OFF time, change from baseline to week 12 (20 mg/day): significant reductions
- Mean daily percentage of ON time with dyskinesia, change from baseline to week 12 (20 mg/day): 1.32 ± 9.36%
- Mean daily percentage of ON time with non-troublesome dyskinesia, change from baseline to week 12 (20 mg/day): significantly increased
- Mean daily percentage of ON time with troublesome dyskinesia, change from baseline to week 12 (20 mg/day): 0.15 ± 8.12%
- Mean daily percentage of ON time without dyskinesia, change from baseline to week 12 (20 mg/day): significantly increased
- Mean daily percentage of ON time without troublesome dyskinesia, change from baseline to week 12 (20 mg/day): significantly increased
- Total UPDRS Parts I-III at ON state, change from baseline to week 12 (20 mg/day): significant reductions
- UPDRS Part I score, change from baseline to week 12 (20 mg/day): −0.2 ± 0.9
- UPDRS Part II score OFF state, change from baseline to week 12 (20 mg/day): −1.8 ± 4.1
- UPDRS Part II score ON state, change from baseline to week 12 (20 mg/day): −0.5 ± 2.3
- UPDRS Part III score at ON state, change from baseline to week 12 (20 mg/day): significant reductions
- UPDRS Part IV score, change from baseline to week 12 (20 mg/day): −0.1 ± 1.6
- Mean daily ON time with non-troublesome dyskinesia, change from baseline to week 12 [1]: 0.16 ± 1.56 h
- Mean daily ON time without dyskinesia, change from baseline to week 12 [1]: 1.03 ± 2.20 h
- Mean daily ON time without troublesome dyskinesia, change from baseline to week 12 [1]: 1.19 ± 2.44 h
- Mean daily percentage of OFF time, change from baseline to week 12 [1]: −7.62 ± 12.62%
- Mean daily percentage of ON time with non-troublesome dyskinesia, change from baseline to week 12 [1]: 1.17 ± 9.54%
- Mean daily percentage of ON time without dyskinesia, change from baseline to week 12 [1]: 6.28 ± 13.68%
- Mean daily percentage of ON time without troublesome dyskinesia, change from baseline to week 12 [1]: 7.45 ± 14.95%
- Total UPDRS Parts I-III at ON state, change from baseline to week 12 [1]: −5.8 ± 8.6
- UPDRS Part III score at ON state, change from baseline to week 12 [1]: −5.1 ± 7.2
- CGI-I Minimally improved, % of patients (20 mg/day): (36.2) %
- CGI-I Minimally improved, number of patients (20 mg/day): 85 number of patients
- CGI-I Minimally worse, % of patients (20 mg/day): (5.1) %
- CGI-I Minimally worse, number of patients (20 mg/day): 12 number of patients
- CGI-I Much improved, % of patients (20 mg/day): (18.3) %
- CGI-I Much improved, number of patients (20 mg/day): 43 number of patients
- CGI-I Much worse, % of patients (20 mg/day): (1.3) %
- CGI-I Much worse, number of patients (20 mg/day): 3 number of patients
- CGI-I No change, % of patients (20 mg/day): (36.2) %
- CGI-I No change, number of patients (20 mg/day): 85 number of patients
- CGI-I Very much improved, % of patients (20 mg/day): (2.6) %
- CGI-I Very much improved, number of patients (20 mg/day): 6 number of patients
- CGI-I Very much worse, % of patients (20 mg/day): (0.4) %
- CGI-I Very much worse, number of patients (20 mg/day): 1 number of patients
- Mean daily OFF time, change from baseline to week 12 (40 mg/day, N = 247): significant reductions
- Mean daily OFF time, change from baseline to week 12 (40 mg/day, N = 247, listed as Istradefylline): -1.27 ± 2.42 h
- Mean daily ON time with dyskinesia, change from baseline to week 12 (40 mg/day): 0.20 ± 1.93 h
- Mean daily ON time with non-troublesome dyskinesia, change from baseline to week 12 (40 mg/day): significantly increased
- Mean daily ON time with troublesome dyskinesia, change from baseline to week 12 (40 mg/day): 0.06 ± 1.13 h
- Mean daily ON time without dyskinesia, change from baseline to week 12 (40 mg/day): significantly increased
- Mean daily ON time without troublesome dyskinesia, change from baseline to week 12 (40 mg/day): significantly increased
- Mean daily percentage of OFF time, change from baseline to week 12 (40 mg/day): significant reductions
- Mean daily percentage of ON time with dyskinesia, change from baseline to week 12 (40 mg/day): 1.28 ± 11.40%
- Mean daily percentage of ON time with non-troublesome dyskinesia, change from baseline to week 12 (40 mg/day): significantly increased
- Mean daily percentage of ON time with troublesome dyskinesia, change from baseline to week 12 (40 mg/day): 0.36 ± 6.44%
- Mean daily percentage of ON time without dyskinesia, change from baseline to week 12 (40 mg/day): significantly increased
- Mean daily percentage of ON time without troublesome dyskinesia, change from baseline to week 12 (40 mg/day): significantly increased
- Total UPDRS Parts I-III at ON state, change from baseline to week 12 (40 mg/day): significant reductions
- UPDRS Part I score, change from baseline to week 12 (40 mg/day): −0.1 ± 1.0
- UPDRS Part II score OFF state, change from baseline to week 12 (40 mg/day): significant reductions
- UPDRS Part II score ON state, change from baseline to week 12 (40 mg/day): −0.7 ± 2.2
- UPDRS Part III score at ON state, change from baseline to week 12 (40 mg/day): significant reductions
- UPDRS Part IV score, change from baseline to week 12 (40 mg/day): significant reductions
- Mean daily ON time with non-troublesome dyskinesia, change from baseline to week 12 [2]: 0.15 ± 1.36 h
- Mean daily ON time without dyskinesia, change from baseline to week 12 [2]: 0.99 ± 2.86 h
- Mean daily ON time without troublesome dyskinesia, change from baseline to week 12 [2]: 1.13 ± 2.65 h
- Mean daily percentage of OFF time, change from baseline to week 12 [2]: −7.76 ± 15.02%
- Mean daily percentage of ON time with non-troublesome dyskinesia, change from baseline to week 12 [2]: 0.92 ± 8.26%
- Mean daily percentage of ON time without dyskinesia, change from baseline to week 12 [2]: 6.46 ± 17.10%
- Mean daily percentage of ON time without troublesome dyskinesia, change from baseline to week 12 [2]: 7.39 ± 15.73%
- Total UPDRS Parts I-III at ON state, change from baseline to week 12 [2]: −6.3 ± 8.1
- UPDRS Part II score OFF state, change from baseline to week 12 [2]: −2.0 ± 3.8
- UPDRS Part III score at ON state, change from baseline to week 12 [2]: −5.5 ± 6.6
- UPDRS Part IV score, change from baseline to week 12 [2]: −0.5 ± 1.6
- CGI-I Minimally improved, % of patients (40 mg/day): (32.5) %
- CGI-I Minimally improved, number of patients (40 mg/day): 80 number of patients
- CGI-I Minimally worse, % of patients (40 mg/day): (6.5) %
- CGI-I Minimally worse, number of patients (40 mg/day): 16 number of patients
- CGI-I Much improved, % of patients (40 mg/day): (21.5) %
- CGI-I Much improved, number of patients (40 mg/day): 53 number of patients
- CGI-I Much worse, % of patients (40 mg/day): (0.8) %
- CGI-I Much worse, number of patients (40 mg/day): 2 number of patients
- CGI-I No change, % of patients (40 mg/day): (34.1) %
- CGI-I No change, number of patients (40 mg/day): 84 number of patients
- CGI-I Very much improved, % of patients (40 mg/day): (4.5) %
- CGI-I Very much improved, number of patients (40 mg/day): 11 number of patients
- CGI-I Very much worse, % of patients (40 mg/day): (0.0) %
- CGI-I Very much worse, number of patients (40 mg/day): 0 number of patients
